This is an account of results in ChEMBL document CHEMBL5360560, “Anti-Vibrio potential of natural products from marine microorganisms” (Eur J Med Chem, 2023).

Converted amounts (≈) assume the structure as drawn.

Format in all cases: functional
The test system of test [1] is Vibrio parahaemolyticus. In words: Antimicrobial activity against Vibrio parahaemolyticus ATCC 17802 assessed as bacterial growth inhibition by microplate reader assay.
For test [2], the system named is Vibrio alginolyticus. In words: Antimicrobial activity against Vibrio alginolyticus assessed as bacterial growth inhibition by microplate reader assay.
In test [3] the test system is Vibrio parahaemolyticus. In words: Antimicrobial activity against Vibrio parahaemolyticus assessed as bacterial growth inhibition.
The subject of another test is Vibrio cholerae. In words: Antimicrobial activity against Vibrio cholerae assessed as bacterial growth inhibition.
Test [4] has as its system Vibrio parahaemolyticus. Kind of test: Antimicrobial activity against Vibrio parahaemolyticus ATCC 17802 assessed as bacterial growth inhibition mesured after 48 hrs by broth dilution assay. On the technique in general: Broth dilution looks for growth in wells or tubes with falling amounts of substance.
Test [5] deals with Vibrio parahaemolyticus. In words: Bactericidal activity against Vibrio parahaemolyticus ATCC 17802 assessed as bacterial growth inhibition mesured after 48 hrs by broth dilution assay.
The test system of another test is Vibrio ichthyoenteri. In words: Antimicrobial activity against Vibrio ichthyoenteri assessed as bacterial growth inhibition.
Test [6] has as its system Vibrio parahaemolyticus. Kind of test: Antimicrobial activity against Vibrio parahaemolyticus MISR 21116 assessed as bacterial growth inhibition measured after 24 hrs by broth microdilution assay.
The subject of test [7] is Vibrio vulnificus. Kind of test: Antimicrobial activity against Vibrio vulnificus MISR 20716 assessed as bacterial growth inhibition measured after 24 hrs by broth microdilution assay.
Test [8] concerns Vibrio alginolyticus. In words: Antimicrobial activity against Vibrio alginolyticus MISR 30816 assessed as bacterial growth inhibition measured after 24 hrs by broth microdilution assay.
The subject of the next test is Vibrio brasiliensis. In words: Antimicrobial activity against Vibrio brasiliensis assessed as bacterial growth inhibition.
Test [9] concerns Vibrio vulnificus. Kind of test: Antimicrobial activity against Vibrio vulnificus assessed as bacterial growth inhibition.
In another test the test system is Vibrio rotiferianus. In words: Antimicrobial activity against Vibrio rotiferianus assessed as bacterial growth inhibition.
A further test deals with Vibrio campbellii. In words: Antimicrobial activity against Vibrio campbellii assessed as bacterial growth inhibition.
The subject of test [10] is Vibrio anguillarum. Kind of test: Antimicrobial activity against Vibrio anguillarum QDIO-6 assessed as bacterial growth inhibition by microtiter plate assay.
Test [11] relates to Vibrio parahaemolyticus. In words: Antimicrobial activity against Vibrio parahaemolyticus QDIO-10 assessed as bacterial growth inhibition measured after 24 hrs by microtitre plate reader assay.
Test [12] concerns Vibrio anguillarum. Kind of test: Antimicrobial activity against Vibrio anguillarum QDIO-8 assessed as bacterial growth inhibition measured after 24 hrs by microtitre plate reader assay.
Test [13] concerns Vibrio harveyi. In words: Antimicrobial activity against Vibrio harveyi QDIO-9 assessed as bacterial growth inhibition measured after 24 hrs by microtitre plate reader assay.
The subject of test [14] is Vibrio parahaemolyticus. In words: Antimicrobial activity against Vibrio parahaemolyticus assessed as zone of inhibition.
Test [15] concerns Vibrio anguillarum. Kind of test: Antimicrobial activity against Vibrio anguillarum assessed as zone of inhibition.
For test [16], the system named is Vibrio harveyi. Kind of test: Antimicrobial activity against Vibrio harveyi assessed as zone of inhibition.
Test [17] relates to Vibrio splendidus. Kind of test: Antimicrobial activity against Vibrio splendidus assessed as zone of inhibition.
The test system of test [18] is Vibrio anguillarum. Kind of test: Antimicrobial activity against Vibrio anguillarum assessed as zone of inhibition per disc at 100 ug measured after 24 hrs by disc diffusion assay. As to conditions: read-out: IZ. (In general: A growth-free zone around the sample is the usual read-out of agar diffusion tests.)
For test [19], the system named is Vibrio alginolyticus. Kind of test: Antimicrobial activity against Vibrio alginolyticus assessed as zone of inhibition.
In test [20] the test system is Vibrio anguillarum. Kind of test: Antimicrobial activity against Vibrio anguillarum assessed as zone of inhibition in diameter per disk at 50 ug. As to conditions: read-out: IZ.
The test system of test [21] is Vibrio harveyi. Kind of test: Antimicrobial activity against Vibrio harveyi assessed as zone of inhibition in diameter per disk at 50 ug. Particulars: read-out: IZ.
In test [22] the test system is Vibrio parahaemolyticus. Kind of test: Antimicrobial activity against Vibrio parahaemolyticus assessed as zone of inhibition in diameter per disk at 50 ug. As to conditions: read-out: IZ.
Test [23] deals with Vibrio splendidus. Kind of test: Antimicrobial activity against Vibrio splendidus assessed as zone of inhibition in diameter per disk at 50 ug. As to conditions: read-out: IZ.
Test [24] deals with Vibrio harveyi. Kind of test: Antimicrobial activity against Vibrio harveyi QDIO-9 assessed as bacterial growth inhibition.
Test [25] relates to Vibrio parahaemolyticus. In words: Antimicrobial activity against Vibrio parahaemolyticus QDIO-10 assessed as bacterial growth inhibition.
Test [26] deals with Vibrio anguillarum. Kind of test: Antimicrobial activity against Vibrio anguillarum assessed as zone of inhibition per disk at 100 ug. Particulars: read-out: IZ.

With `COc1c(Cl)c(C)c(Cl)c2c1[C@H]1c3c(O)c(C)cc(O)c3C[C@H]1C(C)(C)O2` (racemic), the MIC in the test on Vibrio parahaemolyticus [1] and with Vibrio alginolyticus [2] was 10 µM each time.
Turning to `O=C(O)c1ccc[nH]1`, the MIC in the test with Vibrio parahaemolyticus [3] came out at 25 µg/mL (≈ 225 µM); with Vibrio cholerae it was 50 µg/mL (≈ 450 µM).
`COc1ccc(Oc2cc(C)cc(O)c2)c(O[C@@H]2O[C@H](CO)[C@H](O)[C@H](O)[C@H]2O)c1`: the MIC in the test on Vibrio parahaemolyticus [4] amounted to 0.625 µM (≈ 0.255 µg/mL). The MBC with Vibrio parahaemolyticus [5] came to 2.5 µM (≈ 1.02 µg/mL).
For `Cc1cc(O)cc(Oc2cc(C)cc(O)c2)c1` [DIORCINOL], the MIC in the test with Vibrio ichthyoenteri is 40 µg/mL (≈ 174 µM).
Turning to `C[C@@H]1CCC/C=C/[C@H](O)C[C@@H](O)C/C=C\C=C\[C@@H](O)C/C=C/C=C\C(=O)O1`, the MIC with Vibrio parahaemolyticus [6], with Vibrio vulnificus [7] and in the test on Vibrio alginolyticus [8] was 64 µg/mL (≈ 170 µM) throughout.
For the compound `CC(C)[C@@H](C)/C=C/[C@@H](C)[C@H]1CC[C@H]2C3=CC(=O)[C@@]45C[C@@H](O)CC[C@]4(C)[C@]3(CC[C@]12C)O5`, the MIC in the test with Vibrio brasiliensis was found to be 16 µg/mL (≈ 37.5 µM).
For the compound `Cc1cc(O)c2c(c1)C(=O)c1cc(O)cc(O)c1C2=O` [EMODIN], the MIC in the test on Vibrio vulnificus [9], with Vibrio rotiferianus and in the test with Vibrio campbellii was 15.6 µg/mL (≈ 57.7 µM) throughout.
On to `COc1c(Cl)c(C)c(Cl)c2c1[C@H]1c3c(O)c(C)cc(O)c3C[C@@H]1C(C)(C)O2` (racemic), for which the MIC in the test with Vibrio parahaemolyticus [1] and in the test on Vibrio alginolyticus [2] was 20 µM each time.
For `C[C@@H]1CCCCC2=C(O)C(=O)C[C@H]2C(=O)O1`, the MIC with Vibrio anguillarum [10] was found to be 2 µg/mL.
As for `C[C@@H]1CCC/C=C/[C@@H]2O[C@H](C[C@@H](O)C/C=C\C=C\[C@@H](O)C/C=C/C=C\C(=O)O1)[C@H]2O`, the minimum inhibitory concentration (MIC) in the test with Vibrio parahaemolyticus [6], in the test on Vibrio vulnificus [7] and with Vibrio alginolyticus [8] was 64 µg/mL (≈ 153 µM) throughout.
In the case of `CO[C@](C)(CCCC(C)(C)O)c1ccc(C(=O)O)cc1O`, the MIC in the test on Vibrio parahaemolyticus [11], in the test with Vibrio anguillarum [12] and in the test with Vibrio harveyi [13] was 4 µg/mL (≈ 13.5 µM) each time.
Regarding `COc1cc(C)c(Oc2cc(C)cc(O)c2)c(O)c1` [CYPERIN], the MIC in the test on Vibrio parahaemolyticus [4] was determined as 0.312 µM (≈ 0.0812 µg/mL). In addition, the MBC in the test on Vibrio parahaemolyticus [5] was 0.312 µM (≈ 0.0812 µg/mL).
For the compound `CC(=O)CCC[C@H](C)[C@@H]1C=C[C@@](C)(O[C@H]2O[C@H](CO)[C@@H](O)[C@H](O)[C@H]2NC(C)=O)CC1`, in the test with Vibrio parahaemolyticus [14], the “inhibition zone (IZ)” value is reported as 6.1 mm. Further, the MIC in the test on Vibrio anguillarum [15], in the test on Vibrio harveyi [16] and in the test on Vibrio splendidus [17] was 6.1 µg/mL (≈ 14.3 µM) in each case.
As to `O=C1N[C@@H](Cc2ccccc2)C(=O)N2CCC[C@@H]12`, the zone of inhibition at 100 µg/disc with Vibrio anguillarum [18] worked out at 25 mm.
Regarding `O=C1N[C@H](Cc2ccccc2)C(=O)N2C[C@@H](O)C[C@@H]12`, the “inhibition zone (IZ)” value with Vibrio alginolyticus [19] is 20 mm; in the test with Vibrio parahaemolyticus [14] it was 12 mm.
With `COC(OC)c1ccc2c(c1O)C(=O)c1ccccc1C2=O`, the MIC in the test on Vibrio vulnificus [9], with Vibrio rotiferianus and with Vibrio campbellii was 15.6 µg/mL (≈ 52.3 µM) each time.
For `Cc1cc(O)cc(O)c1-c1cc2cc(O)cc(O)c2c(=O)o1`, the zone of inhibition at 50 µg/disc with Vibrio anguillarum [20], in the test with Vibrio harveyi [21], with Vibrio parahaemolyticus [22] and in the test on Vibrio splendidus [23] was 7 mm each time.
For `COC(=O)[C@H](O)CS[C@H]1CC(=O)O[C@H](C)CCCCCC[C@@H]1O`, in the test with Vibrio anguillarum [10], the MIC amounted to 4 µg/mL.
On to `CC(=O)N[C@H]1[C@@H](O[C@]2(C)C=C[C@@H]([C@@H](C)CCC=C(C)C)CC2)O[C@H](CO)[C@@H](O)[C@@H]1O`, for which the “inhibition zone (IZ)” value with Vibrio parahaemolyticus [14] turned out to be 6.1 mm. The MIC with Vibrio anguillarum [15], in the test with Vibrio harveyi [16] and with Vibrio splendidus [17] was 6.1 µg/mL (≈ 14.3 µM) throughout.
For the compound `O=C1N[C@H](Cc2ccccc2)C(=O)N2CCC[C@@H]12`, in the test with Vibrio anguillarum [18], the zone of inhibition at 100 µg/disc was found to be 24 mm.
On to `C=C[C@@]1(C)CCC2=C(C(=O)C=C3C(C)(C)CCC[C@]32O)[C@H]1O`, for which the MIC with Vibrio harveyi [24] and with Vibrio parahaemolyticus [25] was 8 µg/mL (≈ 26.5 µM) throughout.
As for `COc1cc(O)c2c(=O)oc3cc(O)cc(C)c3c2c1`, the zone of inhibition at 100 µg/disc in the test on Vibrio anguillarum [26] came out at 9 mm.

Broadly, the MIC is the lowest concentration that inhibits growth of the organism. The MBC is the smallest concentration meeting the test's criterion for killing.
